In BindingDB's records for PubMed 8450829 (Cnrs, 1993):

What follows are compounds tested against 5-hydroxytryptamine receptor 5B (Mus musculus, UniProt P31387).
Chain of 5-hydroxytryptamine receptor 5B (P31387 whole entry): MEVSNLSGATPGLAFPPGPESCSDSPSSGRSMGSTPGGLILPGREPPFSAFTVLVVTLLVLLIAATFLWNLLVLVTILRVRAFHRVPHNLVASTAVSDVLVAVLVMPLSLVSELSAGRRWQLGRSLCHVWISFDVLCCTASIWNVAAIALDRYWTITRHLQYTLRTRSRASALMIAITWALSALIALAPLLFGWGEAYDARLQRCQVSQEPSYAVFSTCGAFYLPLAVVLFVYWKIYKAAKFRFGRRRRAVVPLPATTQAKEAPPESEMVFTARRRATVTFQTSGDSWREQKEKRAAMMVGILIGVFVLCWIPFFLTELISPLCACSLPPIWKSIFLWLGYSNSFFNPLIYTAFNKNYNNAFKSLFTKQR
CCCN(CCC)C1CCc2cccc(O)c2C1 (stereo not drawn) was tested, and the Ki was 398 nM. Work on CC[C@@H](CO)NC(=O)[C@@H]1C=C2c3cccc4c3c(cn4C)C[C@H]2N(C)C1 yielded a Ki of 126 nM. For NCCc1ccc(O)c(O)c1, the Ki was greater than 10000 nM. O=C(c1ccc(F)cc1)C1CCN(CCn2c(=O)[nH]c3ccccc3c2=O)CC1 [3-(2-{4-[(4-fluorophenyl)carbonyl]piperidin-1-yl}ethyl)-1,2,3,4-tetrahydroquinazoline-2,4-dione] showed a Ki of 1580 nM. CN(C)CCc1c[nH]c2ccc(O)cc12 [3-[2-(dimethylamino)ethyl]indol-5-ol] was tested, and the Ki was 1580 nM. With COc1ccc2[nH]cc(C3=CCNCC3)c2c1 [5-Methoxy-3-(1,2,3,6-tetrahydro-pyridin-4-yl)-1H-indole(RU-24969)] the Ki was 398 nM. CN1C[C@H](C(=O)N[C@]2(C)O[C@@]3(O)[C@@H]4CCCN4C(=O)[C@H](Cc4ccccc4)N3C2=O)C=C2c3cccc4[nH]cc(c34)C[C@H]21 [12'-hydroxy-2'-methyl-5'alpha-(phenylmethyl)ergotaman-3',6',18-trione] gave a Ki of 3.16 nM. NCC(O)c1ccc(O)c(O)c1 (stereo not drawn) [Noradrenaline,(+)] showed a Ki greater than 10000 nM. Work on CNS(=O)(=O)Cc1ccc2[nH]cc(CCN(C)C)c2c1 [Sumax] yielded a Ki of 7940 nM. Work on FC(F)(F)c1cccc(N2CCNCC2)c1 [TFMPP] yielded a Ki of 3980 nM. NCCc1c[nH]c2ccc(O)cc12 [[3H]-5-HT] showed a Ki of 251 nM. NCCc1c[nH]c2ccc(C(N)=O)cc12 [[3H]-5-carboxamidotryptamine] gave a Ki of 39.8 nM. CSc1ccc2c(c1)C(N1CCN(C)CC1)Cc1ccccc1S2 (stereo not drawn) [methanesulfonic acid;1-methyl-4-(3-methylsulfanyl-5,6-dihydrobenzo[b][1]benzothiepin-5-yl)piperazine] was tested, and the Ki was 15.8 nM.
